Test results published in article PMC4788153, “Impact of Cytochrome P450 2D6 Function on the Chiral Blood Plasma Pharmacokinetics of 3,4-Methylenedioxymethamphetamine (MDMA) and Its Phase I and II Metabolites in Humans” (PLoS ONE, 2016).
Counter-ions that a name gives are not always drawn. Like-named read-outs stand apart in the source and are kept apart here.

Columns and labels:
[1] = Chiral plasma pharmacokinetics of bupropion and hydroxybupropion; conditions: for effect of MDMA co-administration on plasma concentrations: bupropion+MDMA vs bupropion+placebo; for half-life: both, human, plasma, oral
[2] = parameters: method as in ref [46] (a number printed in a supplementary file, which may have a reference list of its own: not looked up in the article's list); conditions: ref [46]; cited from earlier work
DAT [3] = conditions: cited from earlier work
DAT [4] = test system: DAT; parameters: method as in ref [15] (a number printed in a supplementary file, which may have a reference list of its own: not looked up in the article's list); conditions: rat synaptosomes, without bupropion; ref [15]; read-out: EC50 of DAT-mediated amphetamine-induced DA release; cited from earlier work
[5] = 125 mg single dose; ref [3, 61]; cited from earlier work
[6] = Chiral plasma pharmacokinetics of MDMA and its phase I and II metabolites after controlled MDMA administration; format: in vivo, human; conditions: for AUC(0-t) / Cmax / half-life / Tmax: human, plasma; for change in AUC24 after bupropion pretreatment / change in Cmax after bupropion pretreatment: bupropion+MDMA vs placebo+MDMA, unsigned = increase; for reduction of Cmax by bupropion: metabolite stereoisomers, bupropion pretreatment vs placebo (abstract)
Description: Blood plasma samples were analyzed non-stereoselectively as reported previously and reanalyzed for the present report using liquid chromatography-mass spectrometry/mass spectrometry after chiral derivatization with Marfey’s reagent as described previously. The method was fully validated, including selectivity, recovery, matrix effects, bias and imprecision, stability, and limit of quantification.

serotonin transporter = conditions: four weeks after MDMA 1.5-1.7 mg/kg, MDMA-naïve volunteers; ref [123, 124]; cited from earlier work
[7] = bupropion vs placebo pretreatment
[8] = both sexes, oral, 125 mg, placebo+MDMA (125 mg), CYP2D6 EM, n=13, plasma, read-out: AUC0-24h S
[9] = both sexes, oral, 125 mg, placebo+MDMA (125 mg), CYP2D6 EM, n=13, plasma, read-out: Cmax S
[10] = both sexes, oral, 125 mg, placebo+MDMA (125 mg), CYP2D6 EM, n=13, plasma, read-out: t1/2 S (converted)
[11] = both sexes, oral, 125 mg, placebo+MDMA (125 mg), CYP2D6 EM, n=13, plasma, read-out: tmax S
[12] = both sexes, oral, bupropion+MDMA (125 mg), CYP2D6 EM (EM/Bup), n=13, plasma, read-out: AUC0-24h S
[13] = both sexes, oral, bupropion+MDMA (125 mg), CYP2D6 EM (EM/Bup), n=13, plasma, read-out: Cmax S
[14] = both sexes, oral, bupropion+MDMA (125 mg), CYP2D6 EM (EM/Bup), n=13, plasma, read-out: t1/2 S (converted)
[15] = both sexes, oral, bupropion+MDMA (125 mg), CYP2D6 EM (EM/Bup), n=13, plasma, read-out: tmax S
[16] = bupropion vs placebo pretreatment, CYP2D6 EMs
[17] = bupropion+MDMA (125 mg), CYP2D6 EM (EM/Bup), n=13, plasma
[18] = im, placebo+MDMA (125 mg), CYP2D6 IM, n=3, plasma, read-out: AUC0-24h S
[19] = im, placebo+MDMA (125 mg), CYP2D6 IM, n=3, plasma, read-out: Cmax S
[20] = im, placebo+MDMA (125 mg), CYP2D6 IM, n=3, plasma, read-out: t1/2 S (converted)
[21] = im, placebo+MDMA (125 mg), CYP2D6 IM, n=3, plasma, read-out: tmax S
[22] = placebo+MDMA (125 mg), CYP2D6 EM, n=13, plasma
[23] = placebo+MDMA (125 mg), CYP2D6 IM, n=3, plasma
[24] = bupropion-pretreated CYP2D6 EMs
[25] = placebo-pretreated EMs, same-configuration MDMA enantiomer

C[C@@H]1NC(C)(C)CO[C@@]1(O)c1cccc(Cl)c1 [S,S-hydroxybupropion, hydroxybupropion]
effect of MDMA co-administration on plasma concentrations [1]: did not significantly alter

CC(NC(C)(C)C)C(=O)c1cccc(Cl)c1 (centres unmarked) [bupropion]
T1/2 [2]: 20 h | DAT occupancy in the human striatum (DAT [3]; 150 mg twice-daily, 3 h after last dose, 11C-βCIT-FE PET, ref [16]): 26% | striatal DAT occupancy (DAT [3]; 2.5 h after single 150 mg, 11C-raclopride PET, ref [83]): no significant

C[C@H](NC(C)(C)C)C(=O)c1cccc(Cl)c1 [S-bupropion, bupropion]
half-life ([1]; 300 mg, t1/2 S/ S,S, bupropion+placebo (P), CYP2B6 genotype normal): 7.3 h | half-life ([1]; 300 mg, t1/2 S/ S,S, bupropion+placebo (P), CYP2B6 genotype reduced): 7.8 h | half-life ([1]; t1/2 S/ S,S, bupropion+MDMA (M), CYP2B6 genotype normal): 7.5 h | half-life ([1]; t1/2 S/ S,S, bupropion+MDMA (M), CYP2B6 genotype reduced): 6.8 h | effect of MDMA co-administration on plasma concentrations [1]: did not significantly alter

CNC(C)Cc1ccc2c(c1)OCO2 (centres unmarked) [MDMA, 3,4-methylenedioxymethamphetamine]
T1/2 [5]: 9.6 h | Tmax [5]: 2.5 h | mean overall effect on R/S ratios ([6]; CYP2D6 inhibition by bupropion): less than 10% | change of R/S ratio for AUC24 after bupropion pretreatment [6, 7]: -9% | change of R/S ratio for Cmax after bupropion pretreatment [6, 7]: -6% | change in serotonin transporter density (serotonin transporter): No changes

CN[C@@H](C)Cc1ccc2c(c1)OCO2 [S-MDMA, 3,4-methylenedioxymethamphetamine]
AUC(0-t) [6, 8]: 4.9 µM·h | Cmax [6, 9]: 560 nM | half-life [6, 10]: 4.5 h | Tmax [6, 11]: 2.1 h | AUC(0-t) [6, 12]: 6.8 µM·h | Cmax [6, 13]: 650 nM | half-life [6, 14]: 5.7 h | Tmax [6, 15]: 2.5 h | prolongation of t1/2 after bupropion pretreatment [6, 16]: 26% | reduction of Cl/F after bupropion pretreatment [6, 16]: -31% | AUCtotal S [6, 17]: 7.2 (1.7) μmol/l*h-1 | CL/F S [6, 17]: 50.5 (13.5) l/h | change in AUC24 after bupropion pretreatment ([6]; CYP2D6 EMs): 38% | change in Cmax after bupropion pretreatment ([6]; CYP2D6 EMs): 16% | AUC(0-t) [6, 18]: 6.8 µM·h | Cmax [6, 19]: 720 nM | half-life [6, 20]: 5.1 h | Tmax [6, 21]: 2.3 h | AUCtotal S [6, 22]: 5.1 (1.5) μmol/l*h-1 | CL/F S [6, 22]: 72.8 (26.2) l/h | AUCtotal S [6, 23]: 7.1 (2.0) μmol/l*h-1 | CL/F S [6, 23]: 50.4 (12.6) l/h

C[C@@H](NC(C)(C)C)C(=O)c1cccc(Cl)c1 [R-bupropion, bupropion]
half-life ([1]; 300 mg, t1/2 R/ R,R, bupropion+placebo (P), CYP2B6 genotype normal): 8.4 h | half-life ([1]; 300 mg, t1/2 R/ R,R, bupropion+placebo (P), CYP2B6 genotype reduced): 8.9 h | half-life ([1]; t1/2 R/ R,R, bupropion+MDMA (M), CYP2B6 genotype normal): 8.5 h | half-life ([1]; t1/2 R/ R,R, bupropion+MDMA (M), CYP2B6 genotype reduced): 7.5 h | effect of MDMA co-administration on plasma concentrations [1]: did not significantly alter

CNC(C)Cc1ccc(O)c(OS(=O)(=O)O)c1 (centres unmarked) [DHMA 3-sulfate]
reduction of Cmax by bupropion [6]: approximately 40%

C[C@H]1NC(C)(C)CO[C@]1(O)c1cccc(Cl)c1 [R,R-hydroxybupropion, hydroxybupropion]
effect of MDMA co-administration on plasma concentrations [1]: did not significantly alter

CN[C@H](C)Cc1ccc(OS(=O)(=O)O)c(OC)c1 [R-HMMA sulfate]
metabolite/MDMA ratio, mean constant (after approximately 2 h) ([6]; IMs): 0.13 | metabolite/MDMA ratio, mean initial (highest, first hour) ([6]; IMs): 1.9 | AUC(0-t) ([6]; both sexes, oral, 125 mg, placebo+MDMA (125 mg), CYP2D6 EM, n=13, plasma, read-out: AUC0-24h R): 5.5 µM·h | Tmax ([6]; both sexes, oral, 125 mg, placebo+MDMA (125 mg), CYP2D6 EM, n=13, plasma, read-out: tmax R): 2 h | AUC(0-t) ([6]; both sexes, oral, bupropion+MDMA (125 mg), CYP2D6 EM (EM/Bup), n=13, plasma, read-out: AUC0-24h R): 2.1 µM·h | Cmax ([6]; both sexes, oral, bupropion+MDMA (125 mg), CYP2D6 EM (EM/Bup), n=13, plasma, read-out: Cmax R): 140 nM | half-life ([6]; both sexes, oral, bupropion+MDMA (125 mg), CYP2D6 EM (EM/Bup), n=13, plasma, read-out: t1/2 R (converted)): 34.4 h | Tmax ([6]; both sexes, oral, bupropion+MDMA (125 mg), CYP2D6 EM (EM/Bup), n=13, plasma, read-out: tmax R): 4.2 h | Cmax ([6]; both sexes, oral, placebo+MDMA (125 mg), CYP2D6 EM, n=13, plasma, read-out: Cmax R): 370 nM | half-life ([6]; both sexes, oral, placebo+MDMA (125 mg), CYP2D6 EM, n=13, plasma, read-out: t1/2 R (converted)): 17.5 h | AUCtotal R [6, 17]: 7.1 (4.6) μmol/l*h-1 | change in AUC24 after bupropion pretreatment ([6]; CYP2D6 EMs): -62% | change in Cmax after bupropion pretreatment ([6]; CYP2D6 EMs): -62% | tonset (time of first detection), mean [6, 24]: 0.53 h | metabolite/MDMA ratio, mean constant (after approximately 2 h) ([6]; bupropion-pretreated EMs): 0.13 | metabolite/MDMA ratio, mean initial (highest, first hour) ([6]; bupropion-pretreated EMs): 0.31 | AUCtotal R [6, 22]: 9.6 (2.7) μmol/l*h-1 | AUCtotal R [6, 23]: 3.4 (1.3) μmol/l*h-1 | tonset (time of first detection), mean ([6]; placebo-pretreated CYP2D6 EMs): 0.33 h | metabolite/MDMA ratio, mean constant (after approximately 2 h) ([6]; placebo-pretreated EMs): 0.54 | metabolite/MDMA ratio, mean initial (highest, first hour) [6, 25]: 15.8

CN[C@@H](C)Cc1ccc(OS(=O)(=O)O)c(OC)c1 [S-HMMA sulfate]
metabolite/MDMA ratio, mean constant (after approximately 2 h) ([6]; IMs): 0.28 | metabolite/MDMA ratio, mean initial (highest, first hour) ([6]; IMs): 2.3 | AUC(0-t) [6, 8]: 4.2 µM·h | Cmax [6, 9]: 410 nM | half-life [6, 10]: 6.6 h | Tmax [6, 11]: 1.6 h | AUC(0-t) [6, 12]: 1.6 µM·h | Cmax [6, 13]: 110 nM | half-life [6, 14]: 11.1 h | Tmax [6, 15]: 2.8 h | AUCtotal S [6, 17]: 2.2 (0.75) μmol/l*h-1 | change in AUC24 after bupropion pretreatment ([6]; CYP2D6 EMs): -61% | change in Cmax after bupropion pretreatment ([6]; CYP2D6 EMs): -72% | tonset (time of first detection), mean [6, 24]: 0.56 h | metabolite/MDMA ratio, mean constant (after approximately 2 h) ([6]; bupropion-pretreated EMs): 0.21 | metabolite/MDMA ratio, mean initial (highest, first hour) ([6]; bupropion-pretreated EMs): 0.26 | AUC(0-t) [6, 18]: 1.7 µM·h | Cmax [6, 19]: 140 nM | half-life [6, 20]: 6.9 h | Tmax [6, 21]: 2.5 h | AUCtotal S [6, 22]: 4.6 (1.2) μmol/l*h-1 | AUCtotal S [6, 23]: 1.9 (0.34) μmol/l*h-1 | tonset (time of first detection), mean ([6]; placebo-pretreated CYP2D6 EMs): 0.33 h | metabolite/MDMA ratio, mean constant (after approximately 2 h) ([6]; placebo-pretreated EMs): 0.86 | metabolite/MDMA ratio, mean initial (highest, first hour) [6, 25]: 17.7

CNC(C)Cc1ccc(OS(=O)(=O)O)c(O)c1 (centres unmarked) [DHMA 4-sulfate]
reduction of Cmax by bupropion [6]: approximately 40%

CC(N)Cc1ccc2c(c1)OCO2 (centres unmarked) [MDA, 3,4-methylenedioxyamphetamine]
change of R/S ratio for AUC24 after bupropion pretreatment [6, 7]: -17% | change of R/S ratio for Cmax after bupropion pretreatment [6, 7]: -19%

CNC(C)Cc1ccc(OC2OC(C(=O)O)C(O)C(O)C2O)c(OC)c1 (centres unmarked) [HMMA glucuronide]
reduction of Cmax by bupropion [6]: approximately 40%
